Measurements reported in ChEMBL document CHEMBL1201862, “PubChem BioAssay data set” (2004).
The source made the active and inactive calls.

How the values were obtained:
Mucolipin-3 = Mucolipin-3 (Homo sapiens, UniProt Q8TDD5); assay: Dose response cell-based high-throughput screening assay for agonists of the transient receptor potential channel ML3 (TRPML3). [Related pubchem assays: 1526, 1424, 1448 ]; type: functional
[1] = biological target: T1, High affinity choline transporter 1 (Homo sapiens, UniProt Q9GZV3); assay: CHT inhibitors, dose response, cell-based, 5-point CRC, membrane potential dye (AID 504840); type: functional
T1 sequence (Q9GZV3 whole entry): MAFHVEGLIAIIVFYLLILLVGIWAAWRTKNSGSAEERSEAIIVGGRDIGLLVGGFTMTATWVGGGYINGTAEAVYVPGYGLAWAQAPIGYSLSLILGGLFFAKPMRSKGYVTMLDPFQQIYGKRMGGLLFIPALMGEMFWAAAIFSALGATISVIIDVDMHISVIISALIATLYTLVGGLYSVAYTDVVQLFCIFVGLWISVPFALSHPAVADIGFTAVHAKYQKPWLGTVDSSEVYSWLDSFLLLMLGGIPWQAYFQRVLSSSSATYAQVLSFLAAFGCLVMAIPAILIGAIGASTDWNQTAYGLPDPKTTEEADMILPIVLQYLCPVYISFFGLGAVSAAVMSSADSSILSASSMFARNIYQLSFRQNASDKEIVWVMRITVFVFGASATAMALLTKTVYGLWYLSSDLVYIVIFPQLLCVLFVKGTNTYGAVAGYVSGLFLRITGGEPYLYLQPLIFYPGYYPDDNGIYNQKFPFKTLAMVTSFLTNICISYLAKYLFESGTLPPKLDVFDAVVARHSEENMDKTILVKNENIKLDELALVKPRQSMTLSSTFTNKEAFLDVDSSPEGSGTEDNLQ

Ion channel NompC = Ion channel NompC (Danio rerio, UniProt Q7T1G6); assay: Fluorescence counterscreen assay for TRPML3 agonists: dose response cell-based high-throughput screening assay to identify agonists of the transient receptor potential channel N1 (TRPN1). [Related pubchem assays: 1526, 1424, 1448 ]; type: functional
[2] = biological target: T2, Short transient receptor potential channel 4 (Mus musculus, UniProt Q9QUQ5); assay: mouse TRPC4 channel activators, dose response, cell-based, HEK293 TRPC4/mu-opioid, Fluo-4 calcium (AID 434937); type: functional
T2 sequence (Q9QUQ5 whole entry): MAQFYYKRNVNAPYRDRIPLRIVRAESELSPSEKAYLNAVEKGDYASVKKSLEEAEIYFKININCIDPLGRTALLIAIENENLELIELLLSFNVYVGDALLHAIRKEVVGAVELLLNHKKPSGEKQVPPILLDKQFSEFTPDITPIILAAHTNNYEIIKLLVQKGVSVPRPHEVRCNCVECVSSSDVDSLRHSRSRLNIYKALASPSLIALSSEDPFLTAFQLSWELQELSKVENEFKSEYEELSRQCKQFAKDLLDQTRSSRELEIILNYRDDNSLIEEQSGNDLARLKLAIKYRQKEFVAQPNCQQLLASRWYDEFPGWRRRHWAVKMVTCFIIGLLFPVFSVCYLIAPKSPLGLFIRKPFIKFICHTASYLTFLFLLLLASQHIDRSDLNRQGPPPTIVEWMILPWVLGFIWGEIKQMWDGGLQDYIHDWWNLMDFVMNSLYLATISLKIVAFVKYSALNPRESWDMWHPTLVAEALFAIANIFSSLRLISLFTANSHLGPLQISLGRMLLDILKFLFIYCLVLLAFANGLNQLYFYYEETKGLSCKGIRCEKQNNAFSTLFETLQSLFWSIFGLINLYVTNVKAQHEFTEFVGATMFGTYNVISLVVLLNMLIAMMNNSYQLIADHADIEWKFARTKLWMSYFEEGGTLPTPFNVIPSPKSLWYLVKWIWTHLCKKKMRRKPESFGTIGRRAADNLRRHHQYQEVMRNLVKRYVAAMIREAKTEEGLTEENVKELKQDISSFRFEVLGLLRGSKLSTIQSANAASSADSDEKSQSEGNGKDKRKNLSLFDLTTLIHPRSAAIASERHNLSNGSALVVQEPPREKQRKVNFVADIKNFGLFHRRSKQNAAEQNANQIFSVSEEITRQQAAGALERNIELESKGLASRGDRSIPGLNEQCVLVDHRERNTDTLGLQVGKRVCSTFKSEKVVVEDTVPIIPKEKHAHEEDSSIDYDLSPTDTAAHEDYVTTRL

[3] = biological target: T3, Corticotropin-releasing factor receptor 2/Corticotropin-releasing factor-binding protein (Homo sapiens, UniProt P24387+Q13324); assay: activators of CRF receptor 2 with binding protein – uHTS hits, confirmation (AID 602473); type: functional; conditions: read-out: EC50_Mean
T3 sequence (Q13324 whole entry): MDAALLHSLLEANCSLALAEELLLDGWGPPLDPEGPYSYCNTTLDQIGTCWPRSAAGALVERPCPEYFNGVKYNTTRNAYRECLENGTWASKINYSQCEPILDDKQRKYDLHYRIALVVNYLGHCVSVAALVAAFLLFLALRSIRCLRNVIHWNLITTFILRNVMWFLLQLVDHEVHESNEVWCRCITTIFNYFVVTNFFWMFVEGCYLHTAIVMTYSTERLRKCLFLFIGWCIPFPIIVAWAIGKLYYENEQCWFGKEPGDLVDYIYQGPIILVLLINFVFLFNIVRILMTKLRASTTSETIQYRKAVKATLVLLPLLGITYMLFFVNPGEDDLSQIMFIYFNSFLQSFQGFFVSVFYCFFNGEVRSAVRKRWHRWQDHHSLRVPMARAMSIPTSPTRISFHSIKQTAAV
T3 sequence (P24387 whole entry): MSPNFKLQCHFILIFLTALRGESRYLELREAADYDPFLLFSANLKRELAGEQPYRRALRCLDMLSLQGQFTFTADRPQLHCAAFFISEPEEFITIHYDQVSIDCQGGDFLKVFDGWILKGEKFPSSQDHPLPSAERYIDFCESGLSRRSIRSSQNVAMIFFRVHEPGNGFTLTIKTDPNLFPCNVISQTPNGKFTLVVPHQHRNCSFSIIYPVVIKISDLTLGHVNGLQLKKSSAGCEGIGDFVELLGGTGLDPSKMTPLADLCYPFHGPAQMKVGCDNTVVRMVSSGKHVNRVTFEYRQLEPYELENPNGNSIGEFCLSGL

[4] = Luminescence Cell-Based Dose Retest to Confirm Inhibitors of Cancer Stem Cells. [Related pubchem assays (depositor defined):AID2717, AID2721]; type: functional; conditions: Homo sapiens
[5] = growth suppression of beta-catenin-knockout colon cells, dose response, cell-based, HCT116, human colon tumor (AID 1045); type: functional;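 note: HCT116 colon tumor cells with beta catenin knocked out; cells exposed to compound for 60 hours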
[6] = HIV-1 Env-mediated cell fusion inhibitors, dose response, CCR5-tropic Env (AID 2279); type: functional
[7] = growth suppression of PTEN-null colon cells, dose response, cell-based, HCT116 PTEN knockout (AID 1047); type: functional;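 note: HCT116 colon tumor cells with PTEN knocked out; cells exposed to compound for 60 hours before readout; potency for loss of cell viability measured by luminescence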
[8] = biological target: T4, Neuropeptide Y receptor type 1 (Homo sapiens, UniProt P25929); type: functional;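 note: HEK293 cells with a CNG channel challenged with NPY then isoproterenol; potency as antagonist that reverses NPY suppression of cAMP signal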
T4 sequence (P25929 whole entry): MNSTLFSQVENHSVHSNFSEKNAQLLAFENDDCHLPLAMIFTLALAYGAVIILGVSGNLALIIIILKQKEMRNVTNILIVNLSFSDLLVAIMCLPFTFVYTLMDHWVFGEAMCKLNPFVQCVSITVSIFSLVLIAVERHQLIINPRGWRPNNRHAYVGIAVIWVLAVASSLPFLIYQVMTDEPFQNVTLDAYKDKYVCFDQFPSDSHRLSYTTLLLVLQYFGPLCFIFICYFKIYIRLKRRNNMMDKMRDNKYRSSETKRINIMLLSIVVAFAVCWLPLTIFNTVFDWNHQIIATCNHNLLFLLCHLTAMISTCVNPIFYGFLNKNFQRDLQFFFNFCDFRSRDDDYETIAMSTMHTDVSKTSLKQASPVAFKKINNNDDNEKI

[9] = biological target: T5, Neuropeptide Y receptor type 2 (Homo sapiens, UniProt P49146); type: functional, cell-based;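 note: HEK293 cells expressing the receptor and a CNG channel; stimulus was NPY near EC95 followed by isoproterenol to raise cAMP; antagonist potency measured as restoring cAMP signal that NPY suppresses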
T5 sequence (P49146 whole entry): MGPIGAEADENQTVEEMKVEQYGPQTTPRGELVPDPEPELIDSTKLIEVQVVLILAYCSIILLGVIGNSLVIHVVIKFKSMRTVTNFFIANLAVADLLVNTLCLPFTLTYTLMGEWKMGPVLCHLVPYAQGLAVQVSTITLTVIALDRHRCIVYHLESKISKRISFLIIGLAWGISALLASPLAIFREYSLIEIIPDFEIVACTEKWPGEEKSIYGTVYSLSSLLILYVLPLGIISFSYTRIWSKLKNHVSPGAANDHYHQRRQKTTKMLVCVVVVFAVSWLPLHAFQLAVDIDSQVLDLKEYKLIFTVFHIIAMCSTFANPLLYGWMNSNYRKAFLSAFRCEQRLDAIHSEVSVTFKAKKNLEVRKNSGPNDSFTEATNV

[10] = biological target: T6, Heat shock 70 kDa protein 1A (Homo sapiens, UniProt P0DMV8); assay: Hsp70 inhibitors, biochemical, TR-FRET (AID 786)
[11] = biological target: T6, Heat shock 70 kDa protein 1A; assay: Hsp70 inhibitors, probe displacement, primary screen, biochemical, fluorescence polarization (AID 583)
[12] = biological target: T7, Dual specificity protein phosphatase 6 (Rattus norvegicus, UniProt Q64346); assay: MKP-3 phosphatase inhibitors, primary screen, biochemical, rat enzyme, in vitro (AID 425)
T7 sequence (Q64346 whole entry): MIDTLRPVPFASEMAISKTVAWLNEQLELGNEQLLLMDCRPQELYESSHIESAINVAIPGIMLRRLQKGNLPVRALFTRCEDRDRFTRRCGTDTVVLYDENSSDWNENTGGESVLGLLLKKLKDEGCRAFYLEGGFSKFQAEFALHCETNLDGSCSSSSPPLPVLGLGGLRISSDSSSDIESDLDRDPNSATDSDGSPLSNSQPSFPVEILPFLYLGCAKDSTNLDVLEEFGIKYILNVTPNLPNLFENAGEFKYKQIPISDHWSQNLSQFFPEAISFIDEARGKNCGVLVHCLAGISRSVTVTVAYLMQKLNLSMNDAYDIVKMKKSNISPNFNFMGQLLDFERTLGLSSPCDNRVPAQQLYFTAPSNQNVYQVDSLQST

Bcl-2-like protein 10 [13] = biological target: T8, Bcl-2-like protein 10 (Homo sapiens, UniProt Q9HD36); assay: displacers of TR3 peptide from Bcl-B, primary screen, selectivity assay for Bfl-1 inhibitor project, biochemical, fluorescence polarization, FITC-TR3 peptide (AID 748);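 note: fluorescence polarization from a fluorescein-labelled TR3 peptide binding purified Bcl-B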
T8 sequence (Q9HD36 whole entry): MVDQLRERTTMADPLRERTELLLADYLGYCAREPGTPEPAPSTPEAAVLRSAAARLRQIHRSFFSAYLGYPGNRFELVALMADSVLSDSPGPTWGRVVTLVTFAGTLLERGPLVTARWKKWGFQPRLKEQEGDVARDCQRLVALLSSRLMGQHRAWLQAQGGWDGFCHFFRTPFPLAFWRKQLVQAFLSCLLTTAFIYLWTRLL

Bcl-2-like protein 10 [14] = biological target: T8, Bcl-2-like protein 10; assay: Biochemical TR3 FP assay of Bcl-B inhibitor potency, EC50 (AID 1243); type: functional
[15] = biological target: Peroxisome proliferator-activated receptor gamma/Nuclear receptor coactivator 3 (Homo sapiens, UniProt P37231); type: functional;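 note: agonist potency for raising coactivator recruitment to the receptor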
[16] = biological target: Peroxisome proliferator-activated receptor gamma/Nuclear receptor coactivator 2 (Homo sapiens, UniProt P37231); type: functional;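 note: agonist potency for raising coactivator recruitment to the receptor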
[17] = biological target: Peroxisome proliferator-activated receptor gamma/Nuclear receptor coactivator 1 (Homo sapiens, UniProt P37231); type: functional;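 note: agonist potency as compounds enhance coactivator SRC-1 recruitment to PPARgamma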
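Throughout, for AC50: cells exposed to compound for roughly 70 hours or longer before luminescence read.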

T6 sequence (P0DMV8 whole entry): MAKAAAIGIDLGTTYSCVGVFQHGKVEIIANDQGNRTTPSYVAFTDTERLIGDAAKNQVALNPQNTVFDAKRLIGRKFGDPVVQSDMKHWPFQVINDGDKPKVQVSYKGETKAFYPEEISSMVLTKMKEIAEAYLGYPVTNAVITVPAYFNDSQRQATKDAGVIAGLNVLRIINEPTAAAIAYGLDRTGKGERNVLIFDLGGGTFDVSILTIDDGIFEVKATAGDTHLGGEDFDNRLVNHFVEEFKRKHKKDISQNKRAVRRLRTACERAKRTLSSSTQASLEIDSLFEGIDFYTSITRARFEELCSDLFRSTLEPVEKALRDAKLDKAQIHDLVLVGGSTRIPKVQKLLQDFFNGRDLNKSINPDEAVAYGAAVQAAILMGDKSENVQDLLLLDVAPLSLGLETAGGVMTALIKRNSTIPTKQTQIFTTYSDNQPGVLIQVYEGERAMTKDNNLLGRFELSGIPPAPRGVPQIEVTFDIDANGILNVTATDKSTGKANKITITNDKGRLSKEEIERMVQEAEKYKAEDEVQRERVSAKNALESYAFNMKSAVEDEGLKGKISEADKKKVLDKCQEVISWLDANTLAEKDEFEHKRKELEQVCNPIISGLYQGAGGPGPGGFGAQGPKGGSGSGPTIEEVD
Chain of Peroxisome proliferator-activated receptor gamma/Nuclear receptor coactivator 2 (P37231 whole entry): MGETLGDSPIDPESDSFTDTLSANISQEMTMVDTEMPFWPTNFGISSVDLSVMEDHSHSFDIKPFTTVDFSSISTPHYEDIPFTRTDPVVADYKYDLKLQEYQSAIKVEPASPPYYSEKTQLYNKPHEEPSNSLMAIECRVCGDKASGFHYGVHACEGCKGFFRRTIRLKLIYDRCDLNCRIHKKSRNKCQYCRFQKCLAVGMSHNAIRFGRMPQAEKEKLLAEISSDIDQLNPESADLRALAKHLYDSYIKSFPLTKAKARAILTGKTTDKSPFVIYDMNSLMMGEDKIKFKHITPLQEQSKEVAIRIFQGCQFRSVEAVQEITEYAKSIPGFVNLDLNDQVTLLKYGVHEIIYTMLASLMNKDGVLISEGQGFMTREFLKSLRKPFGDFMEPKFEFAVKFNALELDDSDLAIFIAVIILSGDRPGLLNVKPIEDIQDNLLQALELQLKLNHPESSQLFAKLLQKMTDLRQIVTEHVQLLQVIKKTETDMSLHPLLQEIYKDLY
Chain of Peroxisome proliferator-activated receptor gamma/Nuclear receptor coactivator 2 (Q15596 whole entry, further chain): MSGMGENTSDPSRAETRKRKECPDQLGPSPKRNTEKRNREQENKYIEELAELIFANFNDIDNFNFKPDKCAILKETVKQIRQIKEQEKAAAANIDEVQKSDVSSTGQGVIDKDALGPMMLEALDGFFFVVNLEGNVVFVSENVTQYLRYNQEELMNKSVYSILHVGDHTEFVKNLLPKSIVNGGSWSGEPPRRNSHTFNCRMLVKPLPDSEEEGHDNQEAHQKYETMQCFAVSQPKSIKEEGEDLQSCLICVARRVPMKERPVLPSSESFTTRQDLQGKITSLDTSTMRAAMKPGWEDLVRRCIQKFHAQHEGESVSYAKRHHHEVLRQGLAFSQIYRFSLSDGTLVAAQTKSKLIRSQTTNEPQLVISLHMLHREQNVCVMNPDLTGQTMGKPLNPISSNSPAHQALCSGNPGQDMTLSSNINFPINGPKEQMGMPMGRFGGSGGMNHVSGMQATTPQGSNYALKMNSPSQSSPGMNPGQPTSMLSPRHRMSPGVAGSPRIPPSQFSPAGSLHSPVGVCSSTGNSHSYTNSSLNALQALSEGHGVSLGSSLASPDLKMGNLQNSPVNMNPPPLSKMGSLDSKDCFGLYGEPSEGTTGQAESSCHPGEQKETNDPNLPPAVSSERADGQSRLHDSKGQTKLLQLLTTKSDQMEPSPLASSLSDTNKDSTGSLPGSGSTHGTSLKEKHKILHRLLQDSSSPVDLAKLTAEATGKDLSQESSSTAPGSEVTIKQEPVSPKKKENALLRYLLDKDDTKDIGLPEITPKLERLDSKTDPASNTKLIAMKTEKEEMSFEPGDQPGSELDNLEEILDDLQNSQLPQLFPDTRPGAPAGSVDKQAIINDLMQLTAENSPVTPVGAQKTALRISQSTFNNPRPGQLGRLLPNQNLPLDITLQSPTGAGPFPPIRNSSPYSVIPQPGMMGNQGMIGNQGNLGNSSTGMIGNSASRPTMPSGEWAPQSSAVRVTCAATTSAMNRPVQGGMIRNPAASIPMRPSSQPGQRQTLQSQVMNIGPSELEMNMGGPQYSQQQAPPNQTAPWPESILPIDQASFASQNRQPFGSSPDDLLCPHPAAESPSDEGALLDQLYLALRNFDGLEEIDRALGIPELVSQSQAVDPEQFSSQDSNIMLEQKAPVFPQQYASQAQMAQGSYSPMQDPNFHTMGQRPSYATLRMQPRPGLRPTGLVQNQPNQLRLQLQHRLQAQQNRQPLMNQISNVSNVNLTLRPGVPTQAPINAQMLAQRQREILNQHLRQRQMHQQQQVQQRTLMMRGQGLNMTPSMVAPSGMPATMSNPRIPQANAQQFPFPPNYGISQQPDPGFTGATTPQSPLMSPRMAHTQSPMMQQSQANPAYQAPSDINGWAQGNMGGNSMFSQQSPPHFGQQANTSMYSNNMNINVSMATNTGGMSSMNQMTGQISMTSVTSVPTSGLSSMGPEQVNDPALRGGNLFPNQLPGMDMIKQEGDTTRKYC
Chain of Peroxisome proliferator-activated receptor gamma/Nuclear receptor coactivator 1 (P37231 whole entry): as the sequence (P37231 whole entry) above
Chain of Peroxisome proliferator-activated receptor gamma/Nuclear receptor coactivator 1 (Q15788 whole entry, further chain): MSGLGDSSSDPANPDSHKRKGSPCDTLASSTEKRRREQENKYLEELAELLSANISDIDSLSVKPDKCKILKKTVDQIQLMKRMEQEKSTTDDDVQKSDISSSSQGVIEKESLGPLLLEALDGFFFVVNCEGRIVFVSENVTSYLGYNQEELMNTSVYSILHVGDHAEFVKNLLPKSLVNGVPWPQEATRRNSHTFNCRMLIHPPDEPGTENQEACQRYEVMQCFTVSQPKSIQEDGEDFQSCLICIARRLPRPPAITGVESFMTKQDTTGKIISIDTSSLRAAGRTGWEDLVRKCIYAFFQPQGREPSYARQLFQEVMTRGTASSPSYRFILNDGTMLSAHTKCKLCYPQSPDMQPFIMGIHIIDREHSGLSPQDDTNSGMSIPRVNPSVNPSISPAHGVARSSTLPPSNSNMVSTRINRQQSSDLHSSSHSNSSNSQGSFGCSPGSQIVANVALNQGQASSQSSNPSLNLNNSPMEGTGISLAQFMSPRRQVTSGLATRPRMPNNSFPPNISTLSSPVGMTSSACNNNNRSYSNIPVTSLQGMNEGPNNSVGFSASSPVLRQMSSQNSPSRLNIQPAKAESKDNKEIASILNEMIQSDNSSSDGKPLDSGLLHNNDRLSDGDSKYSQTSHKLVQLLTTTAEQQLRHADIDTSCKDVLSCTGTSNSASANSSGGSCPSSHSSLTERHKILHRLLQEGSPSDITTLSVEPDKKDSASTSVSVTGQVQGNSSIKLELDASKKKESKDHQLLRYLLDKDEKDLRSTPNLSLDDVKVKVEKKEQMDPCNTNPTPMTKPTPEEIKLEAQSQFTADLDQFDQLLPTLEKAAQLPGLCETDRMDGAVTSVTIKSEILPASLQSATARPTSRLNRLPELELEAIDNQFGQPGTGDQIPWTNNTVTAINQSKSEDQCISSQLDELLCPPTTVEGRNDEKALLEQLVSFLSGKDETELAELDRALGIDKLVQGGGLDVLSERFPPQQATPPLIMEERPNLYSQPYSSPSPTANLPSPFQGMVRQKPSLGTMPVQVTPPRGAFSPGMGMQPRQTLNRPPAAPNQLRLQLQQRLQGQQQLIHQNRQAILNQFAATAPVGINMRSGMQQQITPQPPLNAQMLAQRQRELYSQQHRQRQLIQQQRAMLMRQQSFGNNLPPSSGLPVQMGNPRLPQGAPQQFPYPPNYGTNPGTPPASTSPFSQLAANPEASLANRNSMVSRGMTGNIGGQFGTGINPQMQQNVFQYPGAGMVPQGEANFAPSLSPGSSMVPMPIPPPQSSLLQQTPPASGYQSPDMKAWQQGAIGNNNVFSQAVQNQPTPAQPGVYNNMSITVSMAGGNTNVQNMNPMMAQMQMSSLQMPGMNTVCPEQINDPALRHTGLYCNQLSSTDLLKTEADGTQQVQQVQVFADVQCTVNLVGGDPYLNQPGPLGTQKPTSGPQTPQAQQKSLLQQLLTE

## O=C(NC(=S)NNC(=O)c1cccs1)c1ccc(Br)o1
Mucolipin-3
  EC50: 5.99 µM (active)
[1]
  IC50: 28.8 µM (active)
Ion channel NompC
  EC50: 5.44 µM (active)
[2]
  EC50: 5.31 µM (active)
[3]
  EC50: 12.2 µM (active)

## O=C(O)CCn1cc(/C=C/C(=O)c2ccc(Cl)cc2)c(-c2ccc(Br)cc2)n1
[4]
  AC50: 5.62 µM (active)
[5]
  EC50: 15.5 µM (active)
[6]
  IC50: 22.7 µM (active)
[7]
  EC50: 15.9 µM (active)

## Clc1ccc(CSc2cc3c(nn2)-c2ccccc2CC3)cc1Cl
[8]
  IC50: 5.27 µM (active)
[9]
  IC50: 6.88 µM (active)

## Cc1ccc(C)n1-c1cccc(C(=O)O)c1
[10]
  IC50: 18.5 µM (active)
[11]
  IC50: 48.3 µM (active)
[12]
  IC50: > 10 µM (not active)
Bcl-2-like protein 10 [13]
  IC50: 1.13 µM (active)

## Cc1ccc(C)n1-c1ccc(Cl)cc1C(=O)O
Bcl-2-like protein 10 [14]
  EC50: 0.94 µM (active)

## Brc1ccc(-c2csc(N/N=C/c3ccco3)n2)cc1
[15]
  EC50: > 79.4 µM (not active)
[16]
  EC50: > 79.4 µM (not active)
[17]
  EC50: > 79.4 µM (not active)
